Test results taken from patent US20050256132A1, “Use of ER selective NF-kB inhibitors for the treatment of sepsis” (priority 2003, published 2005).
pEC50, pIC50: −log10 of the molar value. Where two headings read alike, the source gives them in different places.

How the values were obtained:
ER/IL-6 = experiment: Endothelial Cell ER/IL-6 Assay, IL-6 promoter luciferase (Table 2); type: cell-based, human; conditions: ERα infected HAECT-1 cells, IL-1β; for Emax: read-out: IL6 luc % Efficacy; for pIC50: read-out: IL6 luc IC50
How it was run: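 HAECT-1 human aortic endothelial cells adenovirally expressing human ERα (or non-ER-infected controls) received compounds as 2× stocks with 2 ng/ml IL-1β and IL-6 promoter (1250 bp)-luciferase adenovirus for […] at 34 °C. ER/IL-6 was read as lysate luciferase and CK as the rate of A340 increase with CK reagent. IC50/EC50 came from four-parameter logistic fits.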

CK = experiment: Creatine kinase assay in ERα infected HAECT-1 cells (Table 2); type: cell-based, human; conditions: for Emax: HAECT1, read-out: CK % Efficacy
Method: T-175 flasks of 100% confluent HAECT-1 cells (immortalized human aortic endothelial cells) were washed with 8 ml of HBSS (HEPES buffered saline solution) and infected for fours hours with 6 ml of a 1:10 dilution of Ad5-wt-hERα virus (an adenovirus transfection vector that mediates CMV promoter driven expression of human ERα) in phenol red free Endothelial Cell Basal medium (Clonetics, San Diego, Calif., Catalog # CC-3129) containing 0.25% bovine serum albumin (EDM-BSA). After four hours, cells were washed with EDM-BSA and incubated overnight in the same medium. Following overnight incubation, cells were washed with EDM-BSA and infected for 2 hours with 6 ml of a 1:10 dilution of Ad5-3x(NFκB).Luc virus (Adenovirus luciferase expression vector driven by three repeats of the MHC NFκb sites 5′ to the thymidine kinase promoter) in EDM-BSA. After two hours, cells were washed and incubated at 34° C. for one hour. Cells were then washed, trypsinized, counted, and resuspended in 95% FBS/5% dimethylsulfoxide at a concentration of […], frozen as 1 or 5 ml aliquots in cryo-vials and stored at −150° C. Control (no ER infection) cells were processed as above without Ad5-wt-hERα virus infection.
ERα infected HAECT-1 cells or control cells were thawed, diluted 42× in warm EBM-BSA, plated into 96-well plates at 0.1 ml/well and incubated for 4 hours at 34° C. Test compounds were added to the cells at 2× stocks in EBM-BSA containing 2 ng/ml IL-1β Ad6-IL-6(1250 bp).Luc virus and plates were returned to the incubator (34° C.). After […], cells were lysed with 50 μl of Promega Cell Culture Lysis reagenet for about 5 minutes at room temperature on a shaker. After lysing, 15 μl of lysate is transferred to luminometer plates for luciferase determination. Luciferase activity is evaluated using a Perkin Elmer Victor2 1420 multilabel counter. Creatine kinase was determined from the rate of increase in A340 following addition of 100 μl of CK assay reagent (Sigma catalog no. 47-10) to the remainder of the cell lysate.
For IC50 and EC50 calculations, mean IL-6, luciferase or CK values versus log10 of the compound concentration were fitted to a four parameter logistic equation. The IC50/EC50 value, ‘Hill slope,’ upper and lower limits of the curve were iteratively estimated.

## COC[C@](C#N)(C(=O)OC)[C@H](c1ccccc1OC)c1cccc2ccccc12 (relative stereo) [Example 141, Methyl (2S*,3S*)-2-cyano-2-(methoxymethyl)-3-(2-methoxyphenyl)-3-(1-naphthyl)propanoate]
ER/IL-6; Homo sapiens, HAECT1
  Emax: 123%
CK; Homo sapiens
  Emax: 39%
other
  melting point: 148.3 to 151 °C

## COc1ccccc1C(c1ccnc2ccccc12)C(C#N)(Cc1cccnc1)C(=O)OC(C)(C)C (stereo not drawn) [Example 166, tert-Butyl 2-cyano-3-(2-methoxyphenyl)-2-(pyridin-3-ylmethyl)-3-quinolin-4-ylpropanoate]
ER/IL-6; Homo sapiens, HAECT1
  Emax: 77%
  pIC50: 6.45
CK; Homo sapiens
  Emax: -13%
other
  melting point: 225 to 228 °C

## COc1ccccc1[C@H](c1cccc2ccccc12)[C@@](C)(C#N)C(=O)N1CCC(N2CCOCC2)CC1 [Example 203, (2S,3S)-3-(2-methoxyphenyl)-2-methyl-2-[(4-morpholin-4-ylpiperidin-1-yl)carbonyl]-3-(1-naphthyl)propanenitrile]
ER/IL-6; Homo sapiens, HAECT1
  Emax: 28%
  pIC50: 8.00
CK; Homo sapiens
  Emax: -26%
other
  melting point: 209 to 210 °C

## COc1ccccc1C1CCN(C(=O)[C@](C)(C#N)[C@H](c2ccccc2OC)c2cccc3ccccc23)CC1 [Example 138, (2S,3S)-3-(2-methoxyphenyl)-2-{[4-(2-methoxyphenyl)piperidin-1-yl]carbonyl}-2-methyl-3-(1-naphthyl)propanenitrile]
ER/IL-6; Homo sapiens, HAECT1
  Emax: 131%
  pIC50: 7.82
CK; Homo sapiens, HAECT1
  pEC50: 7.47
CK; Homo sapiens
  Emax: 49%
other
  melting point: 135 to 140 °C

## COc1ccccc1[C@H](c1cccc2ccccc12)[C@@](C)(C#N)C(=O)N1CCC(N2C(=O)Cc3ccccc32)CC1 [Example 132, (2S,3S)-3-(2-methoxyphenyl)-2-methyl-3-(1-naphthyl)-2-{[4-(2-oxo-2,3-dihydro-1H-indol-1-yl)piperidin-1-yl]carbonyl}propanenitrile]
ER/IL-6; Homo sapiens, HAECT1
  Emax: 92%
  pIC50: 6.91
CK; Homo sapiens, HAECT1
  pEC50: 6.53
CK; Homo sapiens
  Emax: 57%
other
  melting point: 227 to 230 °C

## COc1ccccc1[C@H](c1cccc2ccccc12)[C@@](C)(C#N)C(=O)N1CCN(c2cccc(Br)c2)CC1 [Example 131, (2S)-3-[4-(3-bromophenyl)piperazin-1-yl]-2-[(S)-(2-methoxyphenyl)(1-naphthyl)methyl]-2-methyl-3-oxopropanenitrile]
ER/IL-6; Homo sapiens, HAECT1
  Emax: 119%
  pIC50: 7.82
CK; Homo sapiens, HAECT1
  pEC50: 6.67
CK; Homo sapiens
  Emax: 48%
other
  melting point: 180 to 182 °C

## COCCOCC(C#N)(C(=O)N1CC=C(c2c[nH]c3ccccc23)CC1)C(c1ccccc1OC)c1cccc2ccccc12 (stereo not drawn) [Example 172, (RR,SS)-3-[4-(1H-indol-3-yl)-3,6-dihydropyridin-1(2H)-yl]-2-[(2-methoxyethoxy)methyl]-2-[(S*)-(2-methoxyphenyl)(1-naphthyl)methyl]-3-oxopropanenitrile]
ER/IL-6
  IL6 luc % Efficacy: 149%
  pIC50: 6.94
CK
  CK % Efficacy: −13%

## COCCOC[C@](C#N)(C(=O)OC)[C@H](c1ccccc1OC)c1cccc2ccccc12 (relative stereo) [Example 144, Methyl (2S*,3S*)-2-cyano-2-[(2-methoxyethoxy)methyl]-3-(2-methoxyphenyl)-3-(1-naphthyl)propanoate]
ER/IL-6; Homo sapiens, HAECT1
  Emax: 103%
  pIC50: 8.15
CK; Homo sapiens, HAECT1
  pEC50: 7.72

## COc1ccccc1C(c1cccc2ccccc12)C(C#N)(Cc1cccnc1)C(=O)N1CCN(c2ncccn2)CC1 (stereo not drawn) [Example 174, (RR,SS)-3-(2-methoxyphenyl)-3-(1-naphthyl)-2-(pyridin-3-ylmethyl)-2-[(4-pyrimidin-2-ylpiperazin-1-yl)carbonyl]propanenitrile]
ER/IL-6
  IL6 luc % Efficacy: 49%
  pIC50: 5.74
CK
  CK % Efficacy: 34%

## COCCOCC(C#N)(C(=O)N1CCN(c2ncccn2)CC1)C(c1ccccc1OC)c1cccc2ccccc12 (stereo not drawn) [Example 167, (RR,SS)-2-[(2-Methoxyethoxy)methyl]-3-(2-methoxyphenyl)-3-(1-naphthyl)-2-[(4-pyrimidin-2-ylpiperazin-1-yl)carbonyl]propanenitrile]
ER/IL-6
  IL6 luc % Efficacy: 72%
  pIC50: 5.91
CK
  CK % Efficacy: −16%

## COCC(C#N)(C(=O)OC)C(c1ccccc1OC)c1ccnc2ccccc12 (stereo not drawn) [Example 162, Methyl (RR,SS)-2-cyano-2-(methoxymethyl)-3-(2-methoxyphenyl)-3-quinolin-4-ylpropanoate]
ER/IL-6
  IL6 luc % Efficacy: 126%
  pIC50: 6.26
CK
  CK % Efficacy: −4%

## COc1ccccc1[C@H](c1cccc2ccccc12)[C@@](C)(C#N)C(=O)N1CCC2(CC1)OCCO2 [Example 188]
ER/IL-6
  IL6 luc % Efficacy: 107%
  pIC50: 7.20
CK
  CK % Efficacy: 39%

## COCCOC[C@@](C#N)(C(=O)OC(C)(C)C)[C@@H](c1ccccc1OC)c1cccc2ccccc12 [Example 173, tert-Butyl (RR,SS)-2-cyano-2-[(2-methoxyethoxy)methyl]-3-(2-methoxyphenyl)-3-(1-naphthyl)propanoate]
ER/IL-6
  IL6 luc % Efficacy: 124%
  pIC50: 7.14
CK
  CK % Efficacy: −13%

## COC[C@](C#N)(C(=O)N1CC=C(c2c[nH]c3ccccc23)CC1)[C@H](c1ccccc1OC)c1cccc2ccccc12 [Example 225]
ER/IL-6
  IL6 luc % Efficacy: 83%
  pIC50: 5.80
CK
  CK % Efficacy: −12%

## COC(=O)[C@@](C)(C#N)[C@H](c1cnc2ccccc2c1)c1ccccc1OC [Example 163, Methyl (SS,RR)-2-cyano-3-(2-methoxyphenyl)-2-methyl-3-(quinolin-3-yl)propanoate]
ER/IL-6
  IL6 luc % Efficacy: −32%
  pIC50: 8.53
CK
  CK % Efficacy: −12%

## COc1ccccc1[C@@H](c1cccc2ccccc12)[C@@](C#N)(Cc1cccnc1)C(=O)N1CCN(c2cnccn2)CC1 [Example 177, (RR,SS)-3-(2-methoxyphenyl)-3-(1-naphthyl)-2-[(4-pyrazin-2-ylpiperazin-1-yl)carbonyl]-2-(pyridin-3-ylmethyl)propanenitrile]
ER/IL-6
  IL6 luc % Efficacy: 91%
  pIC50: 5.94
CK
  CK % Efficacy: −32%

## COC[C@@](C#N)(C(=O)N1CC=C(c2c[nH]c3ccccc23)CC1)[C@@H](c1ccccc1OC)c1cccc2ccccc12 [Example 226]
ER/IL-6
  IL6 luc % Efficacy: 115%
  pIC50: 6.66
CK
  CK % Efficacy: 18%
  pEC50: 6.86

## COc1ccccc1C(c1cccc2ccccc12)C(C#N)(Cc1cccnc1)C(=O)N1CC=C(c2c[nH]c3ccccc23)CC1 (stereo not drawn) [Example 178, (RR,SS)-3-[4-(1H-indol-3-yl)-3,6-dihydropyridin-1(2H)-yl]-2-[(2-methoxyphenyl)(1-naphthyl)methyl]-3-oxo-2-(pyridin-3-ylmethyl)propanenitrile]
ER/IL-6
  IL6 luc % Efficacy: 137%
  pIC50: 7.03
CK
  CK % Efficacy: −100%

## COC[C@](C#N)(C(=O)OC)[C@H](c1cnc2ccccc2c1)c1ccccc1OC (relative stereo) [Example 165, Methyl (2S*,3R*)-2-cyano-2-(methoxymethyl)-3-(2-methoxyphenyl)-3-quinolin-3-ylpropanoate]
ER/IL-6; Homo sapiens, HAECT1
  Emax: 21%
CK; Homo sapiens
  Emax: -22%

## COCCOC[C@](C#N)(C(=O)OC)[C@H](c1ccccc1OC)c1cccc2ccccc12 [Example 158, Methyl (2S,3S)-2-cyano-2-[(2-methoxyethoxy)methyl]-3-(2-methoxyphenyl)-3-(1-naphthyl)propanoate]
ER/IL-6; Homo sapiens, HAECT1
  Emax: 121%
  pIC50: 8.35
CK; Homo sapiens, HAECT1
  pEC50: 7.26
CK; Homo sapiens
  Emax: 23%

## COC[C@@](C#N)(C(=O)N1CCN(C2CCCCC2)CC1)[C@@H](c1ccccc1OC)c1cccc2ccccc12 [Example 222, (2R,3R)-3-(4-cyclohexylpiperazin-1-yl)-2-(methoxymethyl)-2-[(2-methoxyphenyl)(1-naphthyl)methyl]-3-oxopropanenitrile]
ER/IL-6
  IL6 luc % Efficacy: 170%
  pIC50: 6.52
CK
  pEC50: 7.48
